Data taken from patent US11613533B2, “Compounds useful for inhibiting RET kinase” (Eli Lilly and Company, priority 2020, dated 2023).

What was measured:
[1] = biological target: T1, V804M mutant RET kinase (N-terminal GST tagged recombinant human V804M mutant RET cytoplasmic domain, aa 658-end) (Homo sapiens, UniProt P07949, V804M); experiment: RET enzyme assay (HTRF KinEASE TK), V804M; format: biochemical; conditions: 1 mM ATP, 40 min incubation at 22° C.
T1 construct: human V804M mutant RET cytoplasmic domain (aa 658-end); GST (N); purchased Millipore 14-760
T1 sequence (P07949 658-1114 V804M limits assumed): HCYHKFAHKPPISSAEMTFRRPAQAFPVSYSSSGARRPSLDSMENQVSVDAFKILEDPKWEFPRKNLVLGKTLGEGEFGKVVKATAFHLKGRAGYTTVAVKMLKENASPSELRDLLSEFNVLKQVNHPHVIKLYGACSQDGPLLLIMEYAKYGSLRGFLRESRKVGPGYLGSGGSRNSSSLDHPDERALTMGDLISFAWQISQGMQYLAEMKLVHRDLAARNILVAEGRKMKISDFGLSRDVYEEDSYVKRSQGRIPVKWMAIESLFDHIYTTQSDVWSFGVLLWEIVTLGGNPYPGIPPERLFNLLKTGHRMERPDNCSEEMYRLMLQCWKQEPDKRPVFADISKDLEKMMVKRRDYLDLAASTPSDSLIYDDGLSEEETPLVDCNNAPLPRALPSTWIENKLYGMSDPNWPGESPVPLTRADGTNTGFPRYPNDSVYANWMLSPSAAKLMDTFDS
Protocol: Assay A: RET Enzyme Assay
Compounds of formulas I, II, or III are screened for their ability to inhibit wildtype, V804M, and G810S mutant RET kinase using CisBio's HTRF® KinEASE™TK assay technology. N-terminal GST tagged recombinant human RET cytoplasmic domain (aa 658-end) from Eurofins ([…]; Catalog No. 14-570M) or N-terminal GST tagged recombinant human V804M mutant RET cytoplasmic domain (aa 658-end) from Millipore (1.25 nM enzyme; Catalog No. 14-760) or N-Terminal GST-tagged recombinant human G810S (aa-658-end) (1.25 nM Enzyme; produced in insect cells) is incubated with 62.5 nM TK-substrate biotin (CisBio, part of Catalog No. 62TK0PEC) and 1 mM ATP along with test compound (0.4% final DMSO in the assay) in a 1× Cisbio enzymatic buffer consisting of […], 5 mM MgCl2, 0.04% BSA and 0.05% Tween20 in a volume of 10 μL. Compounds are typically prepared in a threefold serial dilution in DMSO and added to the assay to give the appropriate final concentration. After a 40-60 min (40 min for V804M, 60 min for WT and G810S) incubation at 22° C., the reaction is quenched by adding quench solution (10 μL) containing 7.8 nM Streptavidine-XL665 and 0.5×TK-ab-Cryptate in HTRF detection buffer (all from CisBio, part of Cat. No. 62TK0PEC). After a 60-80 min incubation (60 minutes for WT, 80 minutes for V804M and G810S) at 22° C., the extent of reaction is determined using a PHERastar plate reader via HTRF detection at excitation/emission 337/665 nm. Percent of inhibition is calculated with 0% inhibition referring to control conditions containing no compound (0.4% DMSO only) and 100% inhibition represented by conditions containing no enzyme. The % inhibition values are fit to a 4 parameter logistic curve, and the determined IC50 value is defined as the estimated concentration of inhibitor at the inflexion point of the fitted curve.

[2] = biological target: T2, KIF5B-RET WT in HEK293 cells (Homo sapiens, UniProt P07949); experiment: RET cell assay (In-Cell Western, phospho-RET Y1062), wildtype; format: cell-based; conditions: HEK293, doxycycline-induced KIF5B-RET WT, 1 hr compound treatment; read-out: EC50, inhibition of intracellular autophosphorylation of RET at tyrosine 1062, wildtype cells
T2 construct: expressed in transfected cells; host or cells: HEK293; the other entry of the earlier key: KIF5B (P33176, Kinesin-1 heavy chain)
T2 sequence (P07949 713-1063 limits assumed): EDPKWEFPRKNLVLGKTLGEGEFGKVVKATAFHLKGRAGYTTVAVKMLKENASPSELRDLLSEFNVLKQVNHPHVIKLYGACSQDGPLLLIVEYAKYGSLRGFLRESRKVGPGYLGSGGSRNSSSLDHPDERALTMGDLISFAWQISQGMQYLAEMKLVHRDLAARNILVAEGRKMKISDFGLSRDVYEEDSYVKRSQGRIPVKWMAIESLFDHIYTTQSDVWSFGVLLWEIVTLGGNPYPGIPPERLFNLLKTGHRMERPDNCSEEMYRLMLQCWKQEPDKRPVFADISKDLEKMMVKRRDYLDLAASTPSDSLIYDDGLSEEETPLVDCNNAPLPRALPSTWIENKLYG
Protocol: Compounds of formulas (I), (II), and (III) are screened for their ability to inhibit the intracellular autophosphorylation of RET at tyrosine 1062 as detected by In-Cell Western. HEK293 cells containing a doxycycline-inducible plasmid for inducible expression of KIF5B-RET WT and RET mutant forms V804M and G810S are seeded at 25,000 cells/well into black poly-D-lysine pre-coated 384-well plates (Corning, Catalog No. 356697). Expression of KIF5B-RET is induced with doxycycline at 1 μg/mL and cells are incubated at 37° C. overnight. Compounds are prepared in a threefold serial dilution in DMSO before further diluting 1:100 in media prior to the addition to the cells (0.1% final DMSO concentration). Compound treatment is performed for 1 hr at 37° C. followed by fixation of cells with 4% formaldehyde for 20 min at RT and cell permeabilisation with ice-cold MeOH for 10 min at RT. Cells are incubated with Intercept® blocking buffer (Li—COR, Catalogue No. 927-70010) for 1 hr at RT. Incubation with primary antibodies against human phospho-RET (Y1062) (R&D, Catalogue No. AF5009, 1/250 dilution) and human glyceraldehyde-3-phosphate dehydrogenase (clone 6C5, Merck, Catalog No. MAB374, 1/1000 dilution) are performed overnight at 4° C. Incubation with secondary antibodies IRDye® 800CW goat anti-rabbit IgG (Li—COR, Catalogue No. 926-32211, 1/1000 dilution) and IRDye® 680CW goat anti-mouse IgG (Li—COR, Catalogue No. 926-68070, 1/1000 dilution) are performed for 1 hr at RT. All antibody dilutions are done in Intercept® blocking buffer containing 0.05% Tween20. After washing cells with PBS-T (Cell Signaling technology, Catalogue No. 9809), the images are acquired on a Li—COR Odyssey LCx at 700 and 800 nm. Percent of DMSO control is calculated with 100% signal referring to control conditions containing no compound (0.4% DMSO only) and 0% signal represented by conditions containing control compound. The % of DMSO control values are fit to a 4 parameter logistic curve, and the determined EC50 value is defined as the estimated concentration of inhibitor at the inflexion point of the fitted curve.

IC50 [1] [µM]	EC50 [2] [µM]	SMILES
< 0.1	< 0.1	CC(C(=O)Nc1cc(C(C)(C)C(F)(F)F)no1)c1ccc(-c2nn(C(C)C)c(N)c2C(N)=O)cc1 (single isomer, unassigned; isomer 1) [Example 17, 5-Amino-1-isopropyl-3-[4-(1-[[3-(1,1,1-trifluoro-2-methylpropan-2-yl)-1,2-oxazol-5-yl]carbamoyl]ethyl)phenyl]pyrazole-4-carboxamide, Isomer 1]
< 0.1	< 0.1	CC(C(=O)Nc1cc(-c2ccc(Cl)cc2Cl)no1)c1ccc(-c2nn(C(C)C)c(N)c2C(N)=O)cc1 (single isomer, unassigned; isomer 1) [Example 45, 5-Amino-3-[4-(1-[[3-(2,4-dichlorophenyl)-1,2-oxazol-5-yl]carbamoyl]ethyl)phenyl]-1-isopropylpyrazole-4-carboxamide, Isomer 1]
< 0.1	< 0.1	CC(C(=O)Nc1cc(C(C)(C)C(C)(F)F)on1)c1ccc(-c2nn(C(C)C)c(N)c2C(N)=O)nc1 (single isomer, unassigned; isomer 2) [Example 70, 5-Amino-3-[5-(1-[[5-(3,3-difluoro-2-methylbutan-2-yl)-1,2-oxazol-3-yl]carbamoyl]ethyl)pyridin-2-yl]-1-isopropylpyrazole-4-carboxamide, Isomer 2]
< 0.1	< 0.1	CCC(C)(C)c1cc(NC(=O)C(C)c2ccc(-c3nn(C(C)C)c(N)c3C(N)=O)cc2)on1 (single isomer, unassigned; isomer 1) [Example 15, 5-Amino-1-isopropyl-3-[4-(1-[[3-(2-methylbutan-2-yl)-1,2-oxazol-5-yl]carbamoyl]ethyl)phenyl]pyrazole-4-carboxamide, Isomer 1]

Further lines, the molecule ahead of its results:

SMILES	IC50 [1] [µM]	EC50 [2] [µM]
CC(C(=O)Nc1cc(C(C)(C)C(F)(F)F)on1)c1ccc(-c2nn(C(C)C)c(N)c2C(N)=O)nc1 (single isomer, unassigned; isomer 2) [Example 64, 5-Amino-1-isopropyl-3-[5-(1-[[5-(1,1,1-trifluoro-yl)-1,2-oxazol-3-2-methylpropan-2-yl]carbamoyl]ethyl)pyridin-2-yl]pyrazole-4-carboxamide, Isomer 2]	< 0.1	< 0.1
CC(C(=O)Nc1cc(C(C)(C)C(F)(F)F)on1)c1ccc(-c2nn(C(C)C)c(N)c2C(N)=O)cc1 (single isomer, unassigned; isomer 1) [Example 81, 5-Amino-1-isopropyl-3-[4-(1-[[5-(1,1,1-trifluoro-2-methylpropan-2-yl)-1,2-oxazol-3-yl]carbamoyl]ethyl)phenyl]pyrazole-4-carboxamide, Isomer 1]	< 0.1	< 0.1
CC(C(=O)Nc1cc(C(C)(C)C(C)(F)F)on1)c1ccc(-c2nn(C(C)C)c(N)c2C(N)=O)cc1 (single isomer, unassigned; isomer 2) [Example 76, 5-Amino-3-[4-(1-[[5-(3,3-difluoro-2-methylbutan-2-yl)-1,2-oxazol-3-yl]carbamoyl]ethyl)phenyl]-1-isopropylpyrazole-4-carboxamide, Isomer 2]	< 0.1	< 0.1
CCC(C)(C)c1cc(NC(=O)C(C)c2ccc(-c3nn(C(C)C)c(N)c3C(N)=O)cn2)on1 (single isomer, unassigned; isomer 2) [Example 84, 5-Amino-1-isopropyl-3-[6-[2-[[3-(1,1-dimethylpropyl)isoxazol-5-yl]amino]-1-methyl-2-oxo-ethyl]-3-pyridyl]pyrazole-4-carboxamide, Isomer 2]	< 0.1	< 0.1
CC(C(=O)Nc1cc(C(C)(C)C(F)(F)F)no1)c1ccc(-c2nn(C(C)C)c(N)c2C(N)=O)cn1 (single isomer, unassigned; isomer 2) [Example 90, 5-Amino-1-isopropyl-3-[6-[1-methyl-2-oxo-2-[[3-(2,2,2-trifluoro-1,1-dimethyl-ethyl)isoxazol-5-yl]amino]ethyl]-3-pyridyl]pyrazole-4-carboxamide, Isomer 2]	< 0.1	< 0.1
CC(C(=O)Nc1cc(C(C)(C)C)sn1)c1ccc(-c2nn(C(C)C)c(N)c2C(N)=O)cc1 (single isomer, unassigned; isomer 2) [Example 80, 5-Amino-3-(4-[1-[(5-tert-butyl-1,2-thiazol-3-yl)carbamoyl]ethyl]phenyl)-1-isopropylpyrazole-4-carboxamide, isomer 2]	< 0.1	< 0.1
CC(C(=O)Nc1cc(C2(C)CC2)no1)c1ccc(-c2nn(C(C)C)c(N)c2C(N)=O)cc1 (single isomer, unassigned; isomer 1) [Example 35, 5-Amino-1-isopropyl-3-[4-(1-[[3-(1-methylcyclopropyl)-1,2-oxazol-5-yl]carbamoyl]ethyl)phenyl]pyrazole-4-carboxamide, Isomer 1]	< 0.1	< 0.1
CCC(C)(C)c1cc(NC(=O)C(C)c2ccc(-c3nn(C(C)C)c(N)c3C(N)=O)nc2)no1 (single isomer, unassigned; isomer 2) [Example 66, 5-Amino-1-isopropyl-3-[5-(1-[[5-(2-methylbutan-2-yl)-1,2-oxazol-3-yl]carbamoyl]ethyl)pyridin-2-yl]pyrazole-4-carboxamide, Isomer 2]	< 0.1	< 0.1
CCC(C)(C)c1cc(NC(=O)C(C)c2ccc(-c3nn(C(C)C)c(N)c3C(N)=O)cc2)no1 (single isomer, unassigned; isomer 2) [Example 52, 5-Amino-1-isopropyl-3-[4-(1-[[5-(2-methylbutan-2-yl)-1,2-oxazol-3-yl]carbamoyl]ethyl)phenyl]pyrazole-4-carboxamide, Isomer 2]	< 0.1	< 0.1
